Several values for one entry are separate records, joined by “and”; a condition that tells them apart may be missing. Equal entries are not always repeated.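 All cell lines were grown in 96-well plates and treated with compound for 48 hours. At the GI50, growth is halved. At the TGI there is no net growth.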

Consider 18 compounds from PubChem BioAssay (NCI).

Among the test systems are UACC-257 melanoma; SK-MEL-5 melanoma; DLD-1 colon; CCRF-CEM leukemia; OVCAR-8 ovarian; A549 NSCLC; SK-MEL-2 melanoma; LXFL 529 NSCLC; K-562 leukemia; SR leukemia; RPMI-8226 leukemia.
Holding throughout (test): inhibition of tumour cell growth, NCI panel, 48 h

On to `CCN(CC)CCCNC(=O)c1ccc([N+](=O)[O-])cc1O`, for which the TGI with UACC-257 melanoma, with SK-MEL-5 melanoma, in the experiment on DLD-1 colon, in the experiment with CCRF-CEM leukemia, in the experiment with OVCAR-8 ovarian and in the experiment on A549 NSCLC was more than 100 µM throughout. For the same compound, the TGI in the experiment with SK-MEL-2 melanoma, in the experiment with LXFL 529 NSCLC and in the experiment with K-562 leukemia was more than 100 µM each time.
For `C=Cc1ccc(C)[n+](C[Si](C)(C)O[Si](C)(C)C[n+]2cc(C=C)ccc2C)c1`, the TGI in the experiment on SR leukemia, with RPMI-8226 leukemia, with UACC-257 melanoma, with SK-MEL-5 melanoma, with DLD-1 colon and in the experiment with CCRF-CEM leukemia was more than 100 µM each time. The TGI in the experiment with OVCAR-8 ovarian, with A549 NSCLC, with SK-MEL-2 melanoma, with LXFL 529 NSCLC and in the experiment with K-562 leukemia was more than 100 µM in each case.
As for `N#CC1=C(c2ccccc2)NNC(c2ccc(Cl)cc2)CC1=O` (centres undefined), the TGI in the experiment with SR leukemia is more than 100 µM; with RPMI-8226 leukemia, more than 100 µM; with UACC-257 melanoma, more than 100 µM; in the experiment on SK-MEL-5 melanoma, 68.2 µM; in the experiment on DLD-1 colon it was more than 100 µM; in the experiment on A549 NSCLC it was more than 100 µM. Also, the TGI with SK-MEL-2 melanoma is 90.4 µM; in the experiment with LXFL 529 NSCLC, more than 100 µM.
In the case of `Cn1ccnc1C(O)(c1nccn1C)c1nccn1C`, the TGI in the experiment on SR leukemia, in the experiment with UACC-257 melanoma, in the experiment on SK-MEL-5 melanoma, with DLD-1 colon, with OVCAR-8 ovarian and in the experiment with SK-MEL-2 melanoma was more than 100 µM each time. Further, in the experiment with LXFL 529 NSCLC, the TGI was more than 100 µM.
For `O=C1NCCS(=O)(=O)N[C@@H](CC2=CC=CCC2)C(=O)N2CCCC12` (some centres undefined), the TGI in the experiment on SR leukemia, with RPMI-8226 leukemia, with UACC-257 melanoma, in the experiment with SK-MEL-5 melanoma, in the experiment with DLD-1 colon and with CCRF-CEM leukemia was more than 100 µM in each case. Also, the TGI in the experiment with OVCAR-8 ovarian, in the experiment with A549 NSCLC, with SK-MEL-2 melanoma, in the experiment with LXFL 529 NSCLC and in the experiment on K-562 leukemia was more than 100 µM in each case.
For `O=C(CN(c1ccccc1)c1ccccc1)N1c2ccccc2C2C=CC=CC21` (centres undefined), the TGI was more than 21.4 µM in the experiment with SR leukemia; more than 28.1 µM in the experiment on RPMI-8226 leukemia; 50.1 µM in the experiment with UACC-257 melanoma; 29.9 µM with SK-MEL-5 melanoma; more than 57.5 µM with DLD-1 colon; more than 36.3 µM in the experiment with CCRF-CEM leukemia. Further, the TGI with OVCAR-8 ovarian was 53.5 µM; in the experiment with A549 NSCLC, more than 54.9 µM; in the experiment with SK-MEL-2 melanoma it was 38.8 µM; with LXFL 529 NSCLC, 34.6 µM; in the experiment on K-562 leukemia it was more than 51.5 µM.
In the case of `O=C1Sc2ccccc2C(=O)N2CSCC12` (centres undefined), the TGI in the experiment on SR leukemia, in the experiment with RPMI-8226 leukemia, in the experiment on UACC-257 melanoma, with SK-MEL-5 melanoma, in the experiment with DLD-1 colon and in the experiment on CCRF-CEM leukemia was more than 100 µM throughout. Further, the TGI in the experiment with OVCAR-8 ovarian, in the experiment with A549 NSCLC, in the experiment with SK-MEL-2 melanoma, with LXFL 529 NSCLC and in the experiment with K-562 leukemia was more than 100 µM each time.
`Cc1cn([C@@H]2C[C@H](CO)[C@@H](O)C2)c(=O)[nH]c1=O`: the TGI in the experiment on UACC-257 melanoma, in the experiment with DLD-1 colon, with CCRF-CEM leukemia, in the experiment on OVCAR-8 ovarian, in the experiment with A549 NSCLC and in the experiment with SK-MEL-2 melanoma was more than 100 µM each time. The TGI in the experiment on LXFL 529 NSCLC and in the experiment with K-562 leukemia was more than 100 µM in each case.
For the compound `COc1ccc(-c2oc(/C=N/NC(N)=S)c([N+](=O)[O-])c2-c2ccc(OC)c(OC)c2)cc1OC`, the TGI was 41.5 µM in the experiment on RPMI-8226 leukemia; more than 100 µM in the experiment with UACC-257 melanoma; more than 100 µM in the experiment on DLD-1 colon; 81.8 µM in the experiment with OVCAR-8 ovarian; more than 100 µM with A549 NSCLC; 35.2 µM in the experiment on SK-MEL-2 melanoma. The compound further had a TGI in the experiment on LXFL 529 NSCLC of 63.8 µM.
In the case of `COc1ccc(CC2c3c(cc(OC)c(OC)c3OC)CCN2C)cc1OC` (centres undefined), the TGI in the experiment on RPMI-8226 leukemia, in the experiment with UACC-257 melanoma, with SK-MEL-5 melanoma, in the experiment on DLD-1 colon, with CCRF-CEM leukemia and with OVCAR-8 ovarian was more than 100 µM in each case. In addition, the TGI in the experiment on A549 NSCLC, with SK-MEL-2 melanoma, with LXFL 529 NSCLC and with K-562 leukemia was more than 100 µM in each case.
On to `Nc1nc(N)c(N=O)c(Nc2ccc(Br)cc2)n1`, for which the TGI in the experiment on SR leukemia is more than 100 µM; in the experiment on UACC-257 melanoma, 77 µM; in the experiment on DLD-1 colon, more than 100 µM; in the experiment with CCRF-CEM leukemia it was more than 100 µM; in the experiment with OVCAR-8 ovarian it was more than 100 µM; in the experiment on A549 NSCLC, more than 100 µM. The figures for the TGI in the experiment with SK-MEL-2 melanoma, in the experiment with LXFL 529 NSCLC and with K-562 leukemia were 49.6 µM, more than 100 µM and more than 100 µM, respectively.
Turning to `CC(=O)OCC1OC(n2cc(I)c(=O)[nH]c2=O)C(OC(C)=O)C(OC(C)=O)C1OC(C)=O` (centres undefined), the TGI in the experiment on SR leukemia, in the experiment with RPMI-8226 leukemia, in the experiment on UACC-257 melanoma, in the experiment on SK-MEL-5 melanoma, in the experiment on DLD-1 colon and in the experiment on CCRF-CEM leukemia was more than 100 µM in each case. For the same compound, the TGI with OVCAR-8 ovarian, in the experiment on A549 NSCLC, in the experiment on SK-MEL-2 melanoma, in the experiment with LXFL 529 NSCLC and in the experiment with K-562 leukemia was more than 100 µM in each case.
`ClC(Cl)=C1C(=C(Cl)Cl)C(Cl)(Cl)C1(Cl)Cl`: the TGI is 3.46 µM in the experiment with SR leukemia; 3.69 µM in the experiment with RPMI-8226 leukemia; 12.9 µM in the experiment with UACC-257 melanoma; 9.98 µM with SK-MEL-5 melanoma; 3.3 µM with DLD-1 colon; 1.5 µM with CCRF-CEM leukemia. Moreover, the TGI in the experiment with OVCAR-8 ovarian turned out to be 18.7 µM; in the experiment with A549 NSCLC it was 25.7 µM; in the experiment with SK-MEL-2 melanoma it was 3.32 µM; in the experiment on LXFL 529 NSCLC, 2.47 µM; in the experiment on K-562 leukemia, 5.62 µM. The figures for the GI50 in the experiment on CCRF-CEM leukemia and with K-562 leukemia were 0.334 µM and 0.532 µM, respectively.
As to `CC12CCC3C(CCC4CC(OC(=O)Cc5ccc(N(CCCl)CCCl)cc5)CCC43C)C1CCC(=O)N2` (centres undefined), the TGI came out at 16.8 µM with SR leukemia; 35.3 µM in the experiment on RPMI-8226 leukemia; 33.3 µM in the experiment with SK-MEL-5 melanoma; 33 µM with DLD-1 colon; 22.7 µM in the experiment on CCRF-CEM leukemia; 29.2 µM with OVCAR-8 ovarian. For the same compound, the TGI is 29 µM in the experiment with A549 NSCLC, 29.8 µM in the experiment with SK-MEL-2 melanoma, 30 µM with LXFL 529 NSCLC and 35.3 µM in the experiment with K-562 leukemia.
`COc1c(O)c2c3c(c(C)cc(O)c3c1O)C(=O)C(O)(C(C)(C)C(C)=O)C2=O` (centres undefined): the TGI with RPMI-8226 leukemia, in the experiment with UACC-257 melanoma, in the experiment with SK-MEL-5 melanoma, with DLD-1 colon, in the experiment with CCRF-CEM leukemia and in the experiment with OVCAR-8 ovarian was more than 100 µM throughout. Besides, the TGI with A549 NSCLC, in the experiment on SK-MEL-2 melanoma, in the experiment with LXFL 529 NSCLC and with K-562 leukemia was more than 100 µM in each case. Further, in the experiment on K-562 leukemia, the GI50 is 34.4 µM and > 100 µM.
Consider `CC(O)CCCOC(c1ccccc1)(c1ccccc1)c1ccccc1` (centres undefined), for which the TGI is more than 57.4 µM with SR leukemia; more than 55.6 µM in the experiment on RPMI-8226 leukemia; 30.4 µM in the experiment on UACC-257 melanoma; 16.6 µM with SK-MEL-5 melanoma; 31.5 µM with DLD-1 colon; more than 67.2 µM with CCRF-CEM leukemia. Further, the TGI in the experiment on OVCAR-8 ovarian is 28.2 µM; in the experiment with A549 NSCLC, 27.3 µM; with SK-MEL-2 melanoma it was 29.5 µM; in the experiment on LXFL 529 NSCLC, 27.9 µM; in the experiment on K-562 leukemia, more than 100 µM.
As to `CCC1=CC2CN3Cn4c(c(COCc5c6n(c7ccccc57)CN5CC7C=C(CC)C5C6(C(=O)OC)C7)c5ccccc54)C(C(=O)OC)(C2)C13`, the TGI in the experiment on SR leukemia, with RPMI-8226 leukemia, in the experiment on UACC-257 melanoma, in the experiment with SK-MEL-5 melanoma, in the experiment on DLD-1 colon and in the experiment on CCRF-CEM leukemia was more than 100 µM each time. Further, the TGI in the experiment with OVCAR-8 ovarian, with A549 NSCLC, in the experiment on SK-MEL-2 melanoma, in the experiment on LXFL 529 NSCLC and in the experiment with K-562 leukemia was more than 100 µM in each case.
`CC1=NN(C(=O)CC(=O)Nc2ccccc2F)C(=O)C1N=Nc1ccccc1[N+](=O)[O-]` (centres undefined): the TGI in the experiment on RPMI-8226 leukemia was more than 100 µM; in the experiment with UACC-257 melanoma, more than 100 µM; with SK-MEL-5 melanoma it was 33.5 µM; in the experiment on DLD-1 colon, more than 100 µM; in the experiment on CCRF-CEM leukemia, more than 100 µM; in the experiment on OVCAR-8 ovarian, more than 100 µM. Also, the TGI with A549 NSCLC, with SK-MEL-2 melanoma, in the experiment on LXFL 529 NSCLC and with K-562 leukemia was more than 100 µM throughout.
